The text below walks through data of paper PMC12224983, “Isoquercitrin Alleviates Diabetic Nephropathy by Inhibiting STAT3 Phosphorylation and Dimerization” (Advanced Science, 2025).

The structures appear in SMILES notation.

This assay addresses T1, signal transducer and activator of transcription 3 (STAT3) (Homo sapiens, UniProt P40763).
T1 construct: Wild-type STAT3 proteins
As to the kind of experiment: SPR (BIAcore T200, STAT3 immobilized on CM5 chip); supported by pull-down, proteome microarray and CETSA. It counts as binding. In general terms: In SPR one partner is held on a chip, and binding of the other changes the refractive index at the surface.

T1 sequence (P40763 2-770): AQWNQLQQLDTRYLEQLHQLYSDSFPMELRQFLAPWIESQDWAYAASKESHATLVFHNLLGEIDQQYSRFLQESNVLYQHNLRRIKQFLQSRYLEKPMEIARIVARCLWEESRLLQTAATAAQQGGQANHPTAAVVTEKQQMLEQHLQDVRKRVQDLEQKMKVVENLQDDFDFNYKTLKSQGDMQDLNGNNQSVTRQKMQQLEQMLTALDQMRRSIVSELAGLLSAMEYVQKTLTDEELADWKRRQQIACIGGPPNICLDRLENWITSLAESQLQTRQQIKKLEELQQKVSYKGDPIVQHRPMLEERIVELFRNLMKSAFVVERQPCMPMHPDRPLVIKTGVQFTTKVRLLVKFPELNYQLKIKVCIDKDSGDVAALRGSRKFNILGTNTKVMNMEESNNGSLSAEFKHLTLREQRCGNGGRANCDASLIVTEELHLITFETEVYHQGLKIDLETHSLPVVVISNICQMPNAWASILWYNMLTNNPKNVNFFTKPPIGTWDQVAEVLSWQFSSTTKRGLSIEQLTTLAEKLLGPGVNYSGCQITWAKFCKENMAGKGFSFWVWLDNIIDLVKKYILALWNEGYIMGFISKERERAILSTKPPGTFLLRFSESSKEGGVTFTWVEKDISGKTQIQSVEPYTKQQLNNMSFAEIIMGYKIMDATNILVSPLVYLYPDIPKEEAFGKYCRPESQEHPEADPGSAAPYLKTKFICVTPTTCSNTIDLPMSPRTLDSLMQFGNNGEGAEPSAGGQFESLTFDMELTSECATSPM

`O=c1c(O[C@@H]2O[C@H](CO)[C@@H](O)[C@H](O)[C@H]2O)c(-c2ccc(O)c(O)c2)oc2cc(O)cc(O)c12` [Isoquercitrin]: binding was characterised by a dissociation constant (Kd) of 2860 nM.
